According to ChEMBL document CHEMBL2073928, “Overlapping substrate specificities and tissue distribution of cytochrome P450 3A and P-glycoprotein: implications for drug delivery and activity in cancer chemotherapy” (Mol Carcinog, 1995):

How the values were obtained:
Type in all cases: functional, organism-based
[1] = target: Multidrug resistance protein 1a (Rattus norvegicus) (UniProt Q6PSM0); assay: TP_TRANSPORTER: Western in vivo Wistar rat, liver
[2] = target: Multidrug resistance protein 1a (Rattus norvegicus) (UniProt Q6PSM0); assay: (§1) TP_TRANSPORTER: RT-PCR in vivo Wistar rat, liver
[3] = target: ATP-dependent translocase ABCB1 (Rattus norvegicus, UniProt P43245); assay: as §1
Sequence of ATP-dependent translocase ABCB1 (P43245 whole entry): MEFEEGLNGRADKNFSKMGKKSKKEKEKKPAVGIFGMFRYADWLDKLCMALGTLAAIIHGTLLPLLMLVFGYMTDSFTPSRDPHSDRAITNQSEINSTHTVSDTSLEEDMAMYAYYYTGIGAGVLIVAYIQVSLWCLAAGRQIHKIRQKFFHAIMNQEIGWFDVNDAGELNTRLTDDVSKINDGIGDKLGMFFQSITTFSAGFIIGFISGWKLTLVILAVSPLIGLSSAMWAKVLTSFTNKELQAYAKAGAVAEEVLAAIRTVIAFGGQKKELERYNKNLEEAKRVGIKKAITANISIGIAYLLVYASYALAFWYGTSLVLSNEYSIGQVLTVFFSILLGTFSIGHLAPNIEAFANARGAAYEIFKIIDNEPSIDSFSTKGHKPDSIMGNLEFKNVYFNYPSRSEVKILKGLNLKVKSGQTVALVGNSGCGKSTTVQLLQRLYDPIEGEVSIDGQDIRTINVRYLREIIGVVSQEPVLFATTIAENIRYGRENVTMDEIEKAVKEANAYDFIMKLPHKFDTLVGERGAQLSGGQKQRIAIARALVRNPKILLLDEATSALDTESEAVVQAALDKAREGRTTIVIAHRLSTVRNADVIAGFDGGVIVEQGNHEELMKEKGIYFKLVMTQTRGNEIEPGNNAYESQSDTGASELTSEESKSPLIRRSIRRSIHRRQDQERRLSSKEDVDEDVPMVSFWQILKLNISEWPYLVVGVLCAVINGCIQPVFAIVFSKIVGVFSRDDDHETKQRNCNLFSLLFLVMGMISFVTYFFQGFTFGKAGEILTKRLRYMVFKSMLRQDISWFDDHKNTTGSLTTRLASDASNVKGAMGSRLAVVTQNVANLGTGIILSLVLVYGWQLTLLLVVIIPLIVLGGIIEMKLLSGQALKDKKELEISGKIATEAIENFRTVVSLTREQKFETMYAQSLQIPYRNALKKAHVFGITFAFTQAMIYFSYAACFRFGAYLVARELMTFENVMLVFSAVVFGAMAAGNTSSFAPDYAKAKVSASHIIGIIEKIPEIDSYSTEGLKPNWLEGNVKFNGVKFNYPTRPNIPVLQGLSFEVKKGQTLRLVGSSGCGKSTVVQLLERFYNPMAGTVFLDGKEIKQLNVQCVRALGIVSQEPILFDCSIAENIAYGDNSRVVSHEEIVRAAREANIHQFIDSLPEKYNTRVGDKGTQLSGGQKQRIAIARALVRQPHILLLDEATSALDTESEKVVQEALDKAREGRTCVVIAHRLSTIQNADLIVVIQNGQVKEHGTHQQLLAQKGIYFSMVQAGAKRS

Sequence of Multidrug resistance protein 1a (Rattus norvegicus) (Q6PSM0 as listed by the source): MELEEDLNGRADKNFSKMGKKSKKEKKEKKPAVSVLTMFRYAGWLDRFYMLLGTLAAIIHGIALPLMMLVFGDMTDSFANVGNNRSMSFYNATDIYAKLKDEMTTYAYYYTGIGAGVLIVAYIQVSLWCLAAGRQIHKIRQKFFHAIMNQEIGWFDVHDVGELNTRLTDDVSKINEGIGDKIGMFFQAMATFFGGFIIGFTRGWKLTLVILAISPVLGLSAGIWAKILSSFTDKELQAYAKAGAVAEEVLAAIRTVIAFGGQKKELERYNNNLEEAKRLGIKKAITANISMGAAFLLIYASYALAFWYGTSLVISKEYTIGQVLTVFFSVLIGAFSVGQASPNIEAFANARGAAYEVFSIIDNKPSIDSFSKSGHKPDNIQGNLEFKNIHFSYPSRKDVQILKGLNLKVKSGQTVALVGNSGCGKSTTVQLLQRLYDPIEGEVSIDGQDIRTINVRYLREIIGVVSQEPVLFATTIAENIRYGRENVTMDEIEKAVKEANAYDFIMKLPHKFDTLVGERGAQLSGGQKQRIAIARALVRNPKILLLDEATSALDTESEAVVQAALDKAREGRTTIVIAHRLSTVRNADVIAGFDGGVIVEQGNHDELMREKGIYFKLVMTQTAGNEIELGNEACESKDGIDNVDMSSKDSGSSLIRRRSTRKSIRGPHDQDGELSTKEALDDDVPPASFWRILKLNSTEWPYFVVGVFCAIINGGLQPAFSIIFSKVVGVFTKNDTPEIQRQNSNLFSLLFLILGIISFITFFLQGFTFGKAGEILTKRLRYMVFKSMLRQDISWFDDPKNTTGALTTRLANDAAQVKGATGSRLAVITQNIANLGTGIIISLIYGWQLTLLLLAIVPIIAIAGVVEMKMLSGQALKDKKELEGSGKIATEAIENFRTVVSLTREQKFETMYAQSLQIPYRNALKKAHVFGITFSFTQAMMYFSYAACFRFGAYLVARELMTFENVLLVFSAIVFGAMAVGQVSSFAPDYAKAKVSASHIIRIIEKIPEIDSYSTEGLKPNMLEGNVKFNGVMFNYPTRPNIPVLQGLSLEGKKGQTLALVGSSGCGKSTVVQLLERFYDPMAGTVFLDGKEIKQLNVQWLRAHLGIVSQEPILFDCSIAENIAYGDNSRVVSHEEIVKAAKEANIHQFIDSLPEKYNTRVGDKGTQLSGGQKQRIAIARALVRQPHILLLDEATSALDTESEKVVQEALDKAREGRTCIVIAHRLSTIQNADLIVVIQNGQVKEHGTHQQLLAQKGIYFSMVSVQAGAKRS

CC(=O)Nc1ccc2c(c1)Cc1ccccc1-2 [2-ACETYLAMINOFLUORENE]
Activity [1]: inducer [+]
Activity [2]: inducer [+]
Activity [3]: inducer [+]
